Source: the NIST ThermoML archive (doi:10.1021/acs.jced.7b00106)
Values joined by “and” are separate entries in the source; they are usually repeats but may differ in a detail not shown here. Equal values may be shown once.

Details: Hot wire method

FC(F)(F)/C=C/Cl [(E)-1-chloro-3,3,3-trifluoroprop-1-ene]
Details | thermal conductivity
383.11 K, 7892 kPa, Liquid | 0.06492 W/m/K
383.11 K, 8377 kPa, Liquid | 0.06527 W/m/K
383.11 K, 20088 kPa, Liquid | 0.07252 W/m/K
383.12 K, 7882 kPa, Liquid | 0.06487 W/m/K
383.12 K, 8374 kPa, Liquid | 0.06525 W/m/K
383.12 K, 20102 kPa, Liquid | 0.07254 W/m/K
383.13 K, 1307 kPa, Liquid | 0.05937 W/m/K
383.13 K, 1311 kPa, Liquid | 0.05937 W/m/K
383.13 K, 35551 kPa, Liquid | 0.08007 W/m/K
383.13 K, 35559 kPa, Liquid | 0.08009 W/m/K
383.17 K, 33010 kPa, Liquid | 0.07893 W/m/K
383.17 K, 33031 kPa, Liquid | 0.07897 W/m/K
383.19 K, 6275 kPa, Liquid | 0.06357 W/m/K
383.2 K, 884 kPa, Fluid (supercritical or subcritical phases) | 0.018 W/m/K
383.2 K, 6276 kPa, Liquid | 0.06372 W/m/K
383.2 K, 16814 kPa, Liquid | 0.07066 W/m/K
383.2 K, 16828 kPa, Liquid | 0.07087 W/m/K
383.21 K, 885 kPa, Fluid (supercritical or subcritical phases) | 0.01804 W/m/K
383.21 K, 1198 kPa, Fluid (supercritical or subcritical phases) | 0.01888 W/m/K
383.23 K, 1197 kPa, Fluid (supercritical or subcritical phases) | 0.01891 W/m/K
383.23 K, 28320 kPa, Liquid | 0.07674 W/m/K
383.24 K, 28314 kPa, Liquid | 0.07674 W/m/K
383.25 K, 13728 kPa, Liquid | 0.06881 W/m/K
383.26 K, 13716 kPa, Liquid | 0.0688 W/m/K
383.3 K, 4299 kPa, Liquid | 0.0621 W/m/K
383.3 K, 4304 kPa, Liquid | 0.06207 W/m/K
383.31 K, 24121 kPa, Liquid | 0.07463 W/m/K
383.31 K, 24128 kPa, Liquid | 0.07464 W/m/K
383.34 K, 10966 kPa, Liquid | 0.06703 W/m/K
383.35 K, 10969 kPa, Liquid | 0.06723 W/m/K
383.36 K, 2610 kPa, Liquid | 0.06058 W/m/K
383.36 K, 2618 kPa, Liquid | 0.06063 W/m/K
383.4 K, 20075 kPa, Liquid | 0.07247 W/m/K
383.4 K, 35533 kPa, Liquid | 0.07987 W/m/K
383.4 K, 35549 kPa, Liquid | 0.08004 W/m/K
383.41 K, 7887 kPa, Liquid | 0.06484 W/m/K
383.41 K, 8373 kPa, Liquid | 0.06523 W/m/K
383.41 K, 20088 kPa, Liquid | 0.07251 W/m/K
383.42 K, 999 kPa, Fluid (supercritical or subcritical phases) | 0.01831 W/m/K
383.42 K, 7894 kPa, Liquid | 0.06491 W/m/K
383.42 K, 8391 kPa, Liquid | 0.06529 W/m/K
383.43 K, 1000 kPa, Fluid (supercritical or subcritical phases) | 0.01834 W/m/K
383.44 K, 1304 kPa, Liquid | 0.05936 W/m/K
383.44 K, 1312 kPa, Liquid | 0.05942 W/m/K
383.44 K, 33007 kPa, Liquid | 0.07889 W/m/K
383.45 K, 33003 kPa, Liquid | 0.0789 W/m/K
383.49 K, 16818 kPa, Liquid | 0.07063 W/m/K
383.49 K, 16831 kPa, Liquid | 0.07066 W/m/K
383.5 K, 6277 kPa, Liquid | 0.06367 W/m/K
383.51 K, 6277 kPa, Liquid | 0.06368 W/m/K
383.51 K, 28297 kPa, Liquid | 0.07667 W/m/K
383.52 K, 28321 kPa, Liquid | 0.07671 W/m/K
383.54 K, 1198 kPa, Fluid (supercritical or subcritical phases) | 0.01908 W/m/K
383.55 K, 1198 kPa, Fluid (supercritical or subcritical phases) | 0.01907 W/m/K
383.55 K, 13721 kPa, Liquid | 0.06876 W/m/K
383.56 K, 13735 kPa, Liquid | 0.06881 W/m/K
383.6 K, 24101 kPa, Liquid | 0.07457 W/m/K
383.6 K, 24124 kPa, Liquid | 0.0746 W/m/K
383.61 K, 4288 kPa, Liquid | 0.06216 W/m/K
383.62 K, 4293 kPa, Liquid | 0.06209 W/m/K
383.65 K, 10955 kPa, Liquid | 0.067 W/m/K
383.65 K, 10973 kPa, Liquid | 0.06702 W/m/K
383.68 K, 2612 kPa, Liquid | 0.0606 W/m/K
383.68 K, 2620 kPa, Liquid | 0.06068 W/m/K
383.73 K, 8375 kPa, Liquid | 0.06521 W/m/K
383.73 K, 8381 kPa, Liquid | 0.06538 W/m/K
383.78 K, 999 kPa, Fluid (supercritical or subcritical phases) | 0.01848 W/m/K
401.38 K, 1794 kPa, Fluid (supercritical or subcritical phases) | 0.02085 W/m/K
401.39 K, 1794 kPa, Fluid (supercritical or subcritical phases) | 0.02077 W/m/K
401.48 K, 1714 kPa, Fluid (supercritical or subcritical phases) | 0.0205 W/m/K
401.48 K, 1716 kPa, Fluid (supercritical or subcritical phases) | 0.02045 W/m/K
401.53 K, 1623 kPa, Fluid (supercritical or subcritical phases) | 0.02023 W/m/K
401.56 K, 1795 kPa, Fluid (supercritical or subcritical phases) | 0.02087 W/m/K
401.57 K, 1795 kPa, Fluid (supercritical or subcritical phases) | 0.02094 W/m/K
401.58 K, 1514 kPa, Fluid (supercritical or subcritical phases) | 0.01985 W/m/K
401.58 K, 1515 kPa, Fluid (supercritical or subcritical phases) | 0.01989 W/m/K
401.61 K, 1407 kPa, Fluid (supercritical or subcritical phases) | 0.01962 W/m/K
401.62 K, 1407 kPa, Fluid (supercritical or subcritical phases) | 0.01968 W/m/K
401.65 K, 1306 kPa, Fluid (supercritical or subcritical phases) | 0.01952 W/m/K
401.65 K, 1307 kPa, Fluid (supercritical or subcritical phases) | 0.01951 W/m/K
401.67 K, 1716 kPa, Fluid (supercritical or subcritical phases) | 0.02063 W/m/K
401.69 K, 1203 kPa, Fluid (supercritical or subcritical phases) | 0.01937 W/m/K and 0.01933 W/m/K
401.71 K, 1106 kPa, Fluid (supercritical or subcritical phases) | 0.01926 W/m/K
401.72 K, 1106 kPa, Fluid (supercritical or subcritical phases) | 0.01925 W/m/K
401.72 K, 1623 kPa, Fluid (supercritical or subcritical phases) | 0.0203 W/m/K
401.73 K, 1623 kPa, Fluid (supercritical or subcritical phases) | 0.02026 W/m/K
401.75 K, 847 kPa, Fluid (supercritical or subcritical phases) | 0.01914 W/m/K
401.75 K, 1000 kPa, Fluid (supercritical or subcritical phases) | 0.01916 W/m/K
401.75 K, 1001 kPa, Fluid (supercritical or subcritical phases) | 0.01919 W/m/K
401.76 K, 846 kPa, Fluid (supercritical or subcritical phases) | 0.01915 W/m/K
401.76 K, 1795 kPa, Fluid (supercritical or subcritical phases) | 0.02102 W/m/K
401.76 K, 1796 kPa, Fluid (supercritical or subcritical phases) | 0.02099 W/m/K
401.78 K, 1514 kPa, Fluid (supercritical or subcritical phases) | 0.0199 W/m/K
401.79 K, 1515 kPa, Fluid (supercritical or subcritical phases) | 0.01993 W/m/K
401.82 K, 1408 kPa, Fluid (supercritical or subcritical phases) | 0.01967 W/m/K
401.83 K, 1407 kPa, Fluid (supercritical or subcritical phases) | 0.01973 W/m/K
401.84 K, 675 kPa, Fluid (supercritical or subcritical phases) | 0.01911 W/m/K
401.86 K, 1307 kPa, Fluid (supercritical or subcritical phases) | 0.01952 W/m/K
401.87 K, 1716 kPa, Fluid (supercritical or subcritical phases) | 0.02077 W/m/K
401.88 K, 1715 kPa, Fluid (supercritical or subcritical phases) | 0.02074 W/m/K
401.91 K, 1202 kPa, Fluid (supercritical or subcritical phases) | 0.01943 W/m/K
401.91 K, 1203 kPa, Fluid (supercritical or subcritical phases) | 0.01941 W/m/K
401.93 K, 1622 kPa, Fluid (supercritical or subcritical phases) | 0.02034 W/m/K
401.94 K, 1105 kPa, Fluid (supercritical or subcritical phases) | 0.01929 W/m/K
401.94 K, 1106 kPa, Fluid (supercritical or subcritical phases) | 0.01933 W/m/K
401.94 K, 1624 kPa, Fluid (supercritical or subcritical phases) | 0.02037 W/m/K
401.96 K, 1796 kPa, Fluid (supercritical or subcritical phases) | 0.02117 W/m/K
401.97 K, 1000 kPa, Fluid (supercritical or subcritical phases) | 0.01921 W/m/K
401.97 K, 1001 kPa, Fluid (supercritical or subcritical phases) | 0.01922 W/m/K
401.97 K, 1796 kPa, Fluid (supercritical or subcritical phases) | 0.02115 W/m/K
401.99 K, 847 kPa, Fluid (supercritical or subcritical phases) | 0.01917 W/m/K
402 K, 845 kPa, Fluid (supercritical or subcritical phases) | 0.01916 W/m/K
402 K, 1514 kPa, Fluid (supercritical or subcritical phases) | 0.01998 W/m/K and 0.02002 W/m/K
402.04 K, 1407 kPa, Fluid (supercritical or subcritical phases) | 0.01972 W/m/K
402.04 K, 1408 kPa, Fluid (supercritical or subcritical phases) | 0.01978 W/m/K
402.07 K, 1716 kPa, Fluid (supercritical or subcritical phases) | 0.02086 W/m/K and 0.02091 W/m/K
402.09 K, 674 kPa, Fluid (supercritical or subcritical phases) | 0.0192 W/m/K
402.09 K, 1306 kPa, Fluid (supercritical or subcritical phases) | 0.01958 W/m/K
402.09 K, 1307 kPa, Fluid (supercritical or subcritical phases) | 0.01963 W/m/K
402.12 K, 33574 kPa, Liquid | 0.0762 W/m/K
402.13 K, 1203 kPa, Fluid (supercritical or subcritical phases) | 0.01947 W/m/K
402.14 K, 1203 kPa, Fluid (supercritical or subcritical phases) | 0.01946 W/m/K
402.15 K, 1623 kPa, Fluid (supercritical or subcritical phases) | 0.02048 W/m/K
402.17 K, 1105 kPa, Fluid (supercritical or subcritical phases) | 0.01933 W/m/K and 0.01934 W/m/K
402.19 K, 1796 kPa, Fluid (supercritical or subcritical phases) | 0.02136 W/m/K and 0.02138 W/m/K
402.2 K, 24990 kPa, Liquid | 0.07177 W/m/K
402.2 K, 25009 kPa, Liquid | 0.07171 W/m/K
402.21 K, 1000 kPa, Fluid (supercritical or subcritical phases) | 0.01925 W/m/K
402.22 K, 1851 kPa, Liquid | 0.05439 W/m/K
402.22 K, 1852 kPa, Liquid | 0.05442 W/m/K
402.23 K, 846 kPa, Fluid (supercritical or subcritical phases) | 0.01918 W/m/K
402.23 K, 1515 kPa, Fluid (supercritical or subcritical phases) | 0.02013 W/m/K and 0.02014 W/m/K
402.24 K, 847 kPa, Fluid (supercritical or subcritical phases) | 0.01925 W/m/K
402.25 K, 13371 kPa, Liquid | 0.06482 W/m/K
402.26 K, 13368 kPa, Liquid | 0.06479 W/m/K
402.27 K, 1408 kPa, Fluid (supercritical or subcritical phases) | 0.01984 W/m/K and 0.01988 W/m/K
402.29 K, 21647 kPa, Liquid | 0.06986 W/m/K
402.29 K, 21648 kPa, Liquid | 0.06987 W/m/K
402.31 K, 1715 kPa, Fluid (supercritical or subcritical phases) | 0.02112 W/m/K and 0.02105 W/m/K
402.31 K, 28736 kPa, Liquid | 0.07366 W/m/K
402.31 K, 28755 kPa, Liquid | 0.0737 W/m/K
402.32 K, 5982 kPa, Liquid | 0.0589 W/m/K and 0.05892 W/m/K
402.32 K, 11080 kPa, Liquid | 0.06308 W/m/K
402.32 K, 11097 kPa, Liquid | 0.06313 W/m/K
402.33 K, 1306 kPa, Fluid (supercritical or subcritical phases) | 0.01962 W/m/K and 0.01976 W/m/K
